Values of other authors in patent US20220151952A1 (priority 2019, published 2022).

cannabidiol [CBD]
solubility in organic solvents (organic solvents, such as oil): soluble | solubility in water (water): insoluble
